Reference: patent publication US11413261B2, “Pharmaceutical composition for treating cancer comprising lactate metal salt” (METIMEDI PHARMACEUTICALS CO., LTD, priority 2014, dated 2022)

What was measured:
[1] = test system: human vascular endothelial cell (HUVEC); experiment: Tube formation of HUVEC in culture supernatants of treated cancer cell lines; type: cell-based
Description: A human vascular endothelial cell (HUVEC) was inoculated into each of the obtained culture supernatant and cultured to analyze a conformational change of cells (FIG. 17). In this case, an HUVEC cultured using the culture medium of a cancer cell line cultured without treating with calcium lactate was used as a control group, and an HUVEC cultured with the treatment with Sulforaphane, which is a growth inhibitor of an HUVEC, was used as a comparison group.

[2] = test system: β-catenin; experiment: β-catenin and activated β-catenin protein expression in breast cancer cell lines; type: cell-based, human; details: MCF-7 and MDA-MB-231; with increasing concentration
Procedure: Using the same method as that of Example 3-1 the expression levels of β-catenin and activated β-catenin depending on the concentration of calcium lactate were compared at the protein expression level (FIG. 6) with a human breast cancer cell line (MCF-7) cultured in a cancer cell culture medium (RPMI1640 medium including 10% FBS and 1% penicillin/streptomycin) at 37° C. with 5% CO2 and a human breast cancer cell line (MDA-MB-231) cultured in another cancer cell culture medium (DMEM medium including 10% FBS and 1% penicillin/streptomycin) at 37° C. with 5% CO2.

[3] = test system: PDH (pyruvate dehydrogenase); experiment: PDH protein expression (immunofluorescence); type: cell-based, human; details: HCT-116 and HT-29; 2.5 mM, 24 hours
Procedure: After the same method as that of Example 6-1 except that an anti-rabbit PDH antibody was used instead of the anti-rabbit LDHB antibody was performed, protein expression levels of PDH in human colorectal cancer cell lines (HCT-116 and HT-29) treated with calcium lactate were measured (FIG. 13).

[4] = test system: breast cancer cell lines (MCF-7 and MDA-MB231); experiment: Cell migration of breast cancer cell lines; type: cell-based; details: 2.5 mM, vs untreated
Procedure: A colorectal cancer cell line HCT-116 with the cell number of 4×10^5 cells was inoculated into a culture container at the center of which an ibidi culture insert having a thickness of 500 μm was placed, and treated with 2.5 mM calcium lactate and then cultured for 24 hours. Then, the insert was removed and further cultured for 12 hours to analyze migration of the cancer cells to a site where the insert was removed using a JuLi Br, Live cell analyzer (NanoEnTek Inc., South Korea) (FIG. 18). In this case, a colorectal cancer cell line cultured without treating with calcium lactate was used as a control group.
Using the same method as Example 8-1, with breast cancer cell lines (MCF-7 and MDA-MB231) instead of the colorectal cancer cell line, an effect of calcium lactate on migration of the breast cancer cell lines was examined (FIG. 19).

[5] = test system: cancer cell lines; experiment: α-KG level in cancer cells (α-Ketoglutarate assay kit); type: cell-based; details: normal medium or glutamine-free medium; 2.5 mM, 24 hours
Procedure: Cancer cell lines with the cell number of 5×10^5 cells cultured in a normal medium or a glutamine-free medium were treated with 2.5 mM calcium lactate for 24 hours and the cells were disrupted by ultrasonication and filtered using a 10 kDa filter so as to obtain filtrate. The obtained filtrate was applied to an α-Ketoglutarate assay kit (BioVision, Exton, Pa.) to measure the concentration of α-KG included in the filtrate (FIGS. 14a and 14b).

[6] = test system: human liver cancer cell line (Hep3B); experiment: Colony-forming ability, anticancer drug in combination with calcium lactate (6-well plates); type: cell-based; details: 2.5 mM calcium lactate alone, vs control
Procedure: Human liver cancer cell line (Hep3B) with the cell number of 1×10^3 cells were seeded into an RPMI1640 medium in each of 6-well plates. After one day, the medium was replaced with fresh medium and the cells were treated with 2.5 mM calcium lactate or 1 μM, 2.5 μM, and 5 μM Sorafenib alone or treated with various concentrations (1 μM, 2.5 μM, and 5 μM) of Sorafenib in combination with 2.5 mM calcium lactate. Then, the colony-forming abilities of the cells were compared. In this case, a human liver cancer cell line (Hep3B) untreated with any drug was used as a control group (FIGS. 45a and 45b).

CC(O)C(=O)[O-].CC(O)C(=O)[O-].[Ca+2] (centres unmarked) [calcium lactate]
tube-forming ability of HUVEC ([1]; culture supernatant of cancer cell line treated with 2.5 mM): reduced tube-forming ability similar to the comparison group treated with Sulforaphane
tube-forming ability of HUVEC ([1]; culture supernatants of cancer cell lines treated with 0.5, 1, 1.5, 2.5 mM for 24 hours, vs control): reduced tube-forming ability
protein expression levels of activated β-catenin [2]: decreased
protein expression levels of β-catenin [2]: decreased
protein expression levels of PDH [3]: sharply increased
cell migration (metastatic capacity) [4]: relatively low levels of metastasis
α-KG levels in the cells [5]: sharply increased
colony-forming ability [6]: suppressed
